Laboratory results taken from patent publication US8946247B2, “Quinazoline carboxamide azetidines” (Merck Patent GmbH, priority 2010, dated 2015).

Legend:
[1] = tested on: pS6 MDA-MB-468; experiment: Cellular Activity Assay (phospho-S6 in MDA-MB-468 cells); assay type: cell-based; settings: Homo sapiens, 2 hr compound incubation, percent pS6-positive cells
Summary of the method: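 MDA-MB-468 cells treated with compound for 2 hr, fixed, then immunostained for phospho-S6 with propidium iodide counterstain. Green (pS6) and red (total) cells counted by laser-scanning cytometry; IC50 derived from percent pS6-positive cells versus compound concentration.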

[2] = target: T1, Aurora B (Homo sapiens, UniProt Q96GD4); experiment: Aurora B Kinase Assay; assay type: biochemical; settings: GST-Aurora B (1-344), 10 uM ATP, 90 min at 25 C
T1 construct: GST-Aurora B (1-344 amino acids); GST (N); purchased Carna Biosciences 05-102
Summary of the method: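 GST-Aurora B (aa 1-344, with His-INCENP) at 0.1 ng/ul, 10 uM ATP and 1 uM FITC-LRRASLG peptide in HEPES pH 7.5 with MgCl2 and DTT, 90 min at 25 C, stopped with EDTA. Substrate-to-product conversion read by off-chip mobility shift; IC50 from sigmoidal dose-response fit.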

[3] = target: T2, Akt1 (Homo sapiens, UniProt P31749); experiment: AKT/PKB Kinase Assay; assay type: biochemical; settings: His-AKT (Full Length), 160 uM ATP, 90 min at 25 C
T2 construct: 0.1 ng/ul His-AKT (Full Length), (Invitrogen, Part #P2999, Lot #641228C); His; purchased Invitrogen P2999
Summary of the method: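 Full-length His-tagged human AKT1 (0.1 ng/ul) with 1 uM FITC-labelled GRPRTSSFAEG peptide, 160 uM ATP, 1 mM MgCl2, 1 mM DTT in 100 mM HEPES pH 7.5, 90 min at 25 C, EDTA stop. Substrate/product peptides separated by off-chip mobility shift; IC50 fitted from % conversion dose-response.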

[4] = target: T3, P70S6K (T412E mutant) (Homo sapiens, UniProt P23443, T412E); experiment: p70S6K Enzyme Assay; assay type: biochemical; settings: 24 μM ATP, 90 min at 25° C., Caliper mobility shift
T3 construct: purchased Millipore
Summary of the method: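 Mobile-shift assay: 3 nM P70S6K T412E with 24 μM ATP and 1 μM FITC-labelled S6-derived peptide in Hepes pH 7.5, MgCl2, DTT, Brij; 90 min at 25 °C, stopped with EDTA. Substrate/phosphopeptide ratio separated electrophoretically on Caliper LabChip; IC50 determined.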

T2 sequence (P31749 whole entry): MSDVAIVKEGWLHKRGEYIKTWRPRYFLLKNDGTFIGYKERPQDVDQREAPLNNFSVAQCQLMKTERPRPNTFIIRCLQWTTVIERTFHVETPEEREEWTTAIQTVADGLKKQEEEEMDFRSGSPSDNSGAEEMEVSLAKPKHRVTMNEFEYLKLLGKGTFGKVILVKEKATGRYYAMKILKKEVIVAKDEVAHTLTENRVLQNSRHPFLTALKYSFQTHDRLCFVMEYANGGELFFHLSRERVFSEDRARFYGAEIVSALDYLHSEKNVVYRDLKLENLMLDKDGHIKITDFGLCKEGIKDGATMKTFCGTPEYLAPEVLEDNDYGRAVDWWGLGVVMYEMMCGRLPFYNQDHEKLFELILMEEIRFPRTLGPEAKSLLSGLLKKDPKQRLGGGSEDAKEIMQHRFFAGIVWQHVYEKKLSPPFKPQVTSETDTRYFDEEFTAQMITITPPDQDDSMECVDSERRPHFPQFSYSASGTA
T1 sequence (Q96GD4 whole entry, the tested form may be a part): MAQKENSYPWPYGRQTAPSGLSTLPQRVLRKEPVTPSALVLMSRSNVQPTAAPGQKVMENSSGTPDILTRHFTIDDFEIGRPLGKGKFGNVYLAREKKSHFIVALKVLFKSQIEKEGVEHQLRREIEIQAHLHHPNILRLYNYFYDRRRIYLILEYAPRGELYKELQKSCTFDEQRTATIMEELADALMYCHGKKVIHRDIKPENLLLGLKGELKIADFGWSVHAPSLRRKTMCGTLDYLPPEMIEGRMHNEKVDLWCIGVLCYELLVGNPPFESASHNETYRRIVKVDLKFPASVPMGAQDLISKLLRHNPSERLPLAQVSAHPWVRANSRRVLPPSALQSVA
T1 sequence (Q9NQS7 803-918 partner limits assumed): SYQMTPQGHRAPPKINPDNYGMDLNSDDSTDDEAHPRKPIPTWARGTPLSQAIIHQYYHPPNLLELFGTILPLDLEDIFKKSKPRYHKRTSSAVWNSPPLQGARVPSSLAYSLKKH
T3 sequence (P23443 1-421 T412E limits assumed): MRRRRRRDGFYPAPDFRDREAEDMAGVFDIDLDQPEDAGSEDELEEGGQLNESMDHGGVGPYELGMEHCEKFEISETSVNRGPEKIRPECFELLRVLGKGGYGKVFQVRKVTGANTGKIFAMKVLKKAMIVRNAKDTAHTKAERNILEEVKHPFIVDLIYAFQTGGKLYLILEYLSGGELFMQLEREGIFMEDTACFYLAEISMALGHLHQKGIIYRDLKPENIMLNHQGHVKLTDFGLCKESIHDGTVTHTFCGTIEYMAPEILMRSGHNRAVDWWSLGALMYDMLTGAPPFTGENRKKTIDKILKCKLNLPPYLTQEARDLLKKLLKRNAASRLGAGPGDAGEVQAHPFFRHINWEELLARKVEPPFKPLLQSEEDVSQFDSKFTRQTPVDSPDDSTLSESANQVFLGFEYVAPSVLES

Row | IC50 [1] [nM] | IC50 [2] [nM] | IC50 [3] [nM] | IC50 [4] [nM] | SMILES
1 | 113 | 280 | 140 | 1.8 | COc1c(F)cc([C@@H](CN2CCC2)Nc2ncnc3c(C(N)=O)cccc23)cc1F [Example 38, 4-[(S)-2-Azetidin-1-yl-1-(3,5-difluoro-4-methoxyphenyl)-ethylamino]-quinazoline-8-carboxylic acid amide]
2 | 116 | 540 | 16 | 5 | NC(=O)c1cccc2c(N[C@H](CN3CC(F)C3)c3ccc(F)c(C(F)(F)F)c3)ncnc12 [Example 49, 4-[(S)-2-(3-Fluoro-azetidin-1-yl)-1-(4-fluoro-3-trifluoromethyl-phenyl)-ethylamino]-quinazoline-8-carboxylic acid amide]
